Measured values: patent US20220040212A1, “ORAL REHYDRATION COMPOSITION WITH OLIGOSACCHARIDES” (ABBOTT LABORATORIES, priority 2013, published 2022)
Several values for one entry are separate records, joined by “and”; a condition that tells them apart may be missing. Equal values may be shown once.

Columns and labels:
[1] = Stability of oligosaccharides in oral rehydration solution, before/after retort sterilization and 3 weeks after (HPAEC); type: physicochemical; settings: for LNnT / Lactose / % Theoretical LNnT: LNnT sample, pH 3.5; for % Theoretical LNnT: fortification 0.256 g/L
Procedure: A study was conducted to determine the relative stabilities of GOS, FOS, 2′-FL, 6′-SL, and LNnT in an oral rehydration solution. A master batch of product was prepared (shown in Table 1), the pH adjusted to approx. 4.25, and subsequently divided into five sub-batches.
Oligosaccharide ingredients were added to each of the sub-batches in amounts shown Table 2, and the pH of each sub-batch was subsequently adjusted to 3.5 with citric acid. The solutions were filled into 1 L plastic bottles, capped and retorted with a cook temperature of 217° F. for 25 minutes. Duplicate samples were collected immediately prior to sterilization and within 24 h after sterilization. Prior to sample analysis, the unsterile samples were stored at refrigerated temperature (˜40° F.) and the sterilized samples were held ambient temperature.
Samples were analyzed by HPAEC using a Dionex ICS3000 Ion Chromatography System (Thermo Scientific, Inc., Sunnyvale, Calif.) equipped with a pulsed amperometric detector comprised of a AgCl reference electrode, gold working electrode, and CarboPac PA1 guard (4×50 mm) and analytical columns (4×250 mm). Mobile phases were degassed and pressurized with 3 to 5 psi helium, and oligosaccharides eluted from the columns using various gradients detailed in Tables 3-5 at a flow rate of 1.0 mL/min. The column and detector were held at 20±2° C. Oligosaccharide identification and concentration were determined from quadratic fit (not forced through the origin) standard curves. […]
2′-FL fortification was calculated to be 0.2 g/L. Testing samples were reconstituted at 20 mL to 100 ml, with water, and then filtered using a 0.2 μm PES membrane syringe filter.
LNnT fortification was calculated to be 0.256 g/L. Testing samples were reconstituted at 20 mL to 100 ml, with water, and then filtered using a 0.2 μm PES membrane syringe filter.
6′-SL fortification was calculated to be 0.2 g/L. Testing samples were reconstituted at 20 mL to 100 mL with water, and then filtered using a 0.2 μm PES membrane syringe filter.

[2] = Stability of 2′-FL, LNnT and 6′-SL in an ORC over time (0 D to 14 weeks); type: physicochemical; settings: for LNnT / Lactose / % Remaining * (LNnT) / % Remaining ** (LNnT): LNnT ORC pH 3.5; for % Remaining * (LNnT): vs target fortification
Procedure: Another study was performed to determine the stability of 2′-FL, LNnT, and 6′-SL in an ORC over time (e.g., 1 week, 3 weeks, 6 weeks, and 14 weeks).
Sample Preparation: A master batch with a pH of 4.25 is sub-divided. The oligosaccharides are added to the respective ORC in an amount of 0.2 g/L for 2′-FL and 6′-SL, LNnT was fortified in an amount of 0.256 g/L. The pH was then adjusted from 4.25 to 3.5 by addition of citric acid. Prior to sterilization, samples are collected to evaluate oligosaccharide levels. The formulas were then delivered into 1 L bottles and subjected to heat sterilization and allowed to cool to room temperature.
The data on day 0 was collected in duplicate for samples prior to sterilization (unsterile) and after sterilization (sterile), thereafter the data was collected only on the sterilized samples. […] The slight fluctuation in lactose and lactulose levels are likely due to method variability.
The data on day 0 was collected in duplicate for samples prior to sterilization (unsterile) and after sterilization (sterile), thereafter the data was collected only on the sterilized samples.
The data on day 0 was collected in duplicate for samples prior to sterilization (unsterile) and after sterilization (sterile), thereafter the data was collected only on the sterilized samples. […] At 14 weeks, the concentration was 2.3% of the target fortification amount.

[3] = 3-week after sterilization, average
[4] = 3-week after sterilization, samples 1, 2
[5] = sterile (after retort 217° F. 25 min), samples 1, 2
[6] = sterile (after retort), average

## CC(=O)N[C@H]1[C@H](O[C@H]2[C@@H](O)[C@@H](CO)O[C@@H](O[C@H]3[C@H](O)[C@@H](O)C(O)O[C@@H]3CO)[C@@H]2O)O[C@H](CO)[C@@H](O[C@@H]2O[C@H](CO)[C@H](O)[C@H](O)[C@H]2O)[C@@H]1O (mixture of isomers) [LNnT, lacto-N-neotetraose]
[1]
  Stability in the exemplary formulations (in words): enhanced stability
[1]; [3]
  LNnT: 269 mg/L
  Lactose: 28.1 mg/L
  % Theoretical LNnT: 105%
[1]; [4]
  LNnT: 266.5 mg/L and 271.0 mg/L
  Lactose: 28.03 mg/L and 28.19 mg/L
  % Theoretical LNnT: 104.2% and 106%
[1]; [5]
  LNnT: 261 mg/L and 261.1 mg/L
  Lactose: 26.34 mg/L and 27.26 mg/L
[1]; [6]
  LNnT: 261 mg/L
  Lactose: 26.8 mg/L
  % Theoretical LNnT: 102%
[1]; sterile (after retort), samples 1, 2
  % Theoretical LNnT: 102.1%
[1]; unsterile, average
  LNnT: 258 mg/L
  Lactose: 25.6 mg/L
  % Theoretical LNnT: 101%
[1]; unsterile, samples 1, 2
  LNnT: 257.6 mg/L and 259.4 mg/L
  Lactose: 25.78 mg/L and 25.46 mg/L
  % Theoretical LNnT: 100.7% and 101.4%
[1]; oral rehydration solution pH 3.5, 3-weeks after sterilization
  Further loss 3-weeks after sterilization, relative to sterilized sample (in words): no further loss
[1]; oral rehydration solution pH 3.5, retort 217° F. 25 min
  Loss of oligosaccharide during sterilization (in words): no decrease
[2]; 0 D, sterile, average
  LNnT: 261 mg/L
  Lactose: 26.8 mg/L
  % Remaining * (LNnT): 102%
[2]; 0 D, sterile, samples 1, 2
  LNnT: 261 mg/L and 261.1 mg/L
  Lactose: 26.34 mg/L and 27.26 mg/L
  % Remaining * (LNnT): 102.1%
[2]; 0 D, unsterile, average
  LNnT: 258 mg/L
  Lactose: 25.6 mg/L
  % Remaining * (LNnT): 101%
[2]; 0 D, unsterile, samples 1, 2
  LNnT: 257.6 mg/L and 259.4 mg/L
  Lactose: 25.78 mg/L and 25.46 mg/L
  % Remaining * (LNnT): 100.7% and 101.4%
[2]; 3 WK, sterile, average
  % Remaining ** (LNnT): 105%
  LNnT: 269 mg/L
  Lactose: 28.10 mg/L
[2]; 3 WK, sterile, samples 1, 2
  % Remaining ** (LNnT): 104.2% and 106%
  LNnT: 266.5 mg/L and 271.0 mg/L
  Lactose: 28.03 mg/L and 28.19 mg/L
[2]; 6 WK, sterile, average
  % Remaining ** (LNnT): 104%
  LNnT: 267 mg/L
  Lactose: 29.7 mg/L
[2]; 6 WK, sterile, samples 1, 2
  % Remaining ** (LNnT): 103.9% and 104.9%
  LNnT: 265.8 mg/L and 268.4 mg/L
  Lactose: 30.89 mg/L and 28.6 mg/L
[2]; 14 WK, sterile, average
  % Remaining ** (LNnT): 105%
  LNnT: 269 mg/L
  Lactose: 28 mg/L
[2]; 14 WK, sterile, samples 1, 2
  % Remaining ** (LNnT): 106.6% and 103.4%
  LNnT: 272.7 mg/L and 264.3 mg/L
  Lactose: 27.94 mg/L and 28.14 mg/L
[2]; ORC pH 3.5, heat sterilized, 0 D to 14 weeks
  Change of oligosaccharide level over the course of the study (in words): No substantial loss
